# Measurements taken from article PMC8766756, “Insights on Cancer Cell Inhibition, Subcellular Activities, and Kinase Profile of Phenylacetamides Pending 1H-Imidazol-5-One Variants” (Frontiers in Pharmacology, 2022).
# Experiments:
# Assay in all cases: PamChip tyrosine kinase microarray
# Type in all cases: biochemical
# Conditions in all cases: 0.1 µM, HL60 lysate
# EphA3 (P29320) = biological target: T1, EphA3 (P29320) (Homo sapiens, UniProt P29320)
# T1 construct: purchased PamGene (PamChip PTK array, Upstream Kinase Analysis)
# T1 sequence (P29320 21-983): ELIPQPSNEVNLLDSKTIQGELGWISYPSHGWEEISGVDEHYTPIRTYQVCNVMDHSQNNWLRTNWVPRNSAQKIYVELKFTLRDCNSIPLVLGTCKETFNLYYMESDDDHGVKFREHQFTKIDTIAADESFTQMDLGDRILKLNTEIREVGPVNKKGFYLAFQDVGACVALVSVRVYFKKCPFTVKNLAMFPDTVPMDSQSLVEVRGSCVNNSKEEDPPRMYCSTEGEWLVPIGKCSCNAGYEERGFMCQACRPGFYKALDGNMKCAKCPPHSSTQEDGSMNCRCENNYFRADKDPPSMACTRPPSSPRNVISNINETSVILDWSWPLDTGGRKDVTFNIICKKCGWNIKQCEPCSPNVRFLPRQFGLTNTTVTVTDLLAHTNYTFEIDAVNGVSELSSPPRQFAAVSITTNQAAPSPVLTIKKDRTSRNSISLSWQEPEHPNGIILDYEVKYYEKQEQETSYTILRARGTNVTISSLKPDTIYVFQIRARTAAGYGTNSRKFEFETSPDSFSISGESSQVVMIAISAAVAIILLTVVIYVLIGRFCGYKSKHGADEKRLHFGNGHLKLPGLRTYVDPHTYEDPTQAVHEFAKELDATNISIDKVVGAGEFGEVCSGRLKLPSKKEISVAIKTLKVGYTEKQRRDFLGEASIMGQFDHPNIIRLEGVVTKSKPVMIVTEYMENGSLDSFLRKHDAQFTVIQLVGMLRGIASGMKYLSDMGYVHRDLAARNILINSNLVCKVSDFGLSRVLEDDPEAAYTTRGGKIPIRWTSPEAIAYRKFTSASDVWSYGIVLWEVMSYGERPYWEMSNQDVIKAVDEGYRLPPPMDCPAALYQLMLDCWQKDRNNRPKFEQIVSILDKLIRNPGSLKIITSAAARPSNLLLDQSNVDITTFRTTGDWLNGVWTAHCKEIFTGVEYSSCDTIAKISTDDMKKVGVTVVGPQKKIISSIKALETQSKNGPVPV
# Summary of the method: (§1)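 HL60 (AML) cell lysate was spiked with compound at 0.001, 0.01, 0.1, 1, 10 and 50 µM, or 2% v/v DMSO as control, then profiled in technical replicates on a tyrosine kinase peptide array of 196 phosphosites. Kinase activity was inferred from peptide-set changes using an upstream kinase tool.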
# FGFR2 (P21802) = biological target: T2, FGFR2 (P21802) (Homo sapiens, UniProt P21802)
# T2 construct: purchased PamGene (PamChip PTK array, Upstream Kinase Analysis)
# Summary of the method: as §1
# Fer (P16591) = biological target: T3, Fer (P16591) (Homo sapiens, UniProt P16591)
# T3 construct: purchased PamGene (PamChip PTK array, Upstream Kinase Analysis)
# Summary of the method: as §1
# IRR (P14616) = biological target: T4, IRR (P14616) (Homo sapiens, UniProt P14616)
# T4 construct: purchased PamGene (PamChip PTK array, Upstream Kinase Analysis)
# Summary of the method: as §1
# TRKB (Q16620) = biological target: T5, TRKB (Q16620) (Homo sapiens, UniProt Q16620)
# T5 construct: purchased PamGene (PamChip PTK array, Upstream Kinase Analysis)
# Summary of the method: as §1
# T5 sequence (Q16620 32-822): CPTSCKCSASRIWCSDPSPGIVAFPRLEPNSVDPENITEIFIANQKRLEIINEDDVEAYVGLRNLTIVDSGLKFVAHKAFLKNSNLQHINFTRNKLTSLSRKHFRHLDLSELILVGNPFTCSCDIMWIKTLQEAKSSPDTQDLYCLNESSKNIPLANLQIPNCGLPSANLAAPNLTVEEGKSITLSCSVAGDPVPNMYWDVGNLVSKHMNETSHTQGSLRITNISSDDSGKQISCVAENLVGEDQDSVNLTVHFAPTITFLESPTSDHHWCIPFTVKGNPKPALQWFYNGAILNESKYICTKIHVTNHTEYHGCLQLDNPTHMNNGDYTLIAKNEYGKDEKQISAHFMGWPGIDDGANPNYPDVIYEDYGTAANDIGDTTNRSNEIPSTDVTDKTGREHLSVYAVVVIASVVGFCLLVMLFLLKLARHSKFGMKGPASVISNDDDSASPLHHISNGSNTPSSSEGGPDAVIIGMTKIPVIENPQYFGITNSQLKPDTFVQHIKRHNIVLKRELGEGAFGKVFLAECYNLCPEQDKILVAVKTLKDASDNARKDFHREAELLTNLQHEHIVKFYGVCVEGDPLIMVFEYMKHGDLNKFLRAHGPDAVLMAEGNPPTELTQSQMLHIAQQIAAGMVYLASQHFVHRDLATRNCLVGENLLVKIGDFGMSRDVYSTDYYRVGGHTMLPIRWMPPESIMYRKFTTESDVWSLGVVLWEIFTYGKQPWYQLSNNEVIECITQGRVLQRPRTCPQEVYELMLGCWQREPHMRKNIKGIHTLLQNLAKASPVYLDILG
# T4 sequence (P14616 27-1297): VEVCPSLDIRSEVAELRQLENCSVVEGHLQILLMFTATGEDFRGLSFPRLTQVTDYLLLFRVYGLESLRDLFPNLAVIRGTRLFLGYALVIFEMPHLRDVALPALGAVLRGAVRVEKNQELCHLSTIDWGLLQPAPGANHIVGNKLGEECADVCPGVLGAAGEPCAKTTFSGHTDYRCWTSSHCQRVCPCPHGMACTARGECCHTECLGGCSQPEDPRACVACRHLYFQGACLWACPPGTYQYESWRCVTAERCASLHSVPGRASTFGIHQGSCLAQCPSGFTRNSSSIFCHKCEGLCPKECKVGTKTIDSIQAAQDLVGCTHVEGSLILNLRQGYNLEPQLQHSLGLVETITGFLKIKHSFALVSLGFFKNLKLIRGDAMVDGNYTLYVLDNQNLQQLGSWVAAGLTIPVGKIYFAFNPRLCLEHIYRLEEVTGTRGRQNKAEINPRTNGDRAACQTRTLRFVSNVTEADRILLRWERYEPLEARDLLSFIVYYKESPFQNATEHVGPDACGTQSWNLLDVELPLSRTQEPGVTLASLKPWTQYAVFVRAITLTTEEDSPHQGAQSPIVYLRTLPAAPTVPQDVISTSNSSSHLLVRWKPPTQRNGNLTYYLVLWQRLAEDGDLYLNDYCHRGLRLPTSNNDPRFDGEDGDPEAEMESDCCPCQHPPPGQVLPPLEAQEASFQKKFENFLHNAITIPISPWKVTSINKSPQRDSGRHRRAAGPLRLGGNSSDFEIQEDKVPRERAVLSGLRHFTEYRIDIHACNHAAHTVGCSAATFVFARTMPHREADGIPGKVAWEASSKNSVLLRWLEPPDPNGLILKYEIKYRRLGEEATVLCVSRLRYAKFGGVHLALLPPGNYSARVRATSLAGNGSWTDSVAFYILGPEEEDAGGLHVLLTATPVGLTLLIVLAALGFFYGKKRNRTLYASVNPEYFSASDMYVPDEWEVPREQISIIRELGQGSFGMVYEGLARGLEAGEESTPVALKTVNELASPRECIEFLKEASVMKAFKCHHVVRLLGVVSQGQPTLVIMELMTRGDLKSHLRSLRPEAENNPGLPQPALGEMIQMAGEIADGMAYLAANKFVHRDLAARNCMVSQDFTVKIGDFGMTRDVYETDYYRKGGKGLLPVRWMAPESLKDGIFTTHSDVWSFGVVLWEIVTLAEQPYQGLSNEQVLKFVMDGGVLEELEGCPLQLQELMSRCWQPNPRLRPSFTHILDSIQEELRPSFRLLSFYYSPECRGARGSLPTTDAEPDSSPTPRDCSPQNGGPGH
# T2 sequence (P21802 22-821): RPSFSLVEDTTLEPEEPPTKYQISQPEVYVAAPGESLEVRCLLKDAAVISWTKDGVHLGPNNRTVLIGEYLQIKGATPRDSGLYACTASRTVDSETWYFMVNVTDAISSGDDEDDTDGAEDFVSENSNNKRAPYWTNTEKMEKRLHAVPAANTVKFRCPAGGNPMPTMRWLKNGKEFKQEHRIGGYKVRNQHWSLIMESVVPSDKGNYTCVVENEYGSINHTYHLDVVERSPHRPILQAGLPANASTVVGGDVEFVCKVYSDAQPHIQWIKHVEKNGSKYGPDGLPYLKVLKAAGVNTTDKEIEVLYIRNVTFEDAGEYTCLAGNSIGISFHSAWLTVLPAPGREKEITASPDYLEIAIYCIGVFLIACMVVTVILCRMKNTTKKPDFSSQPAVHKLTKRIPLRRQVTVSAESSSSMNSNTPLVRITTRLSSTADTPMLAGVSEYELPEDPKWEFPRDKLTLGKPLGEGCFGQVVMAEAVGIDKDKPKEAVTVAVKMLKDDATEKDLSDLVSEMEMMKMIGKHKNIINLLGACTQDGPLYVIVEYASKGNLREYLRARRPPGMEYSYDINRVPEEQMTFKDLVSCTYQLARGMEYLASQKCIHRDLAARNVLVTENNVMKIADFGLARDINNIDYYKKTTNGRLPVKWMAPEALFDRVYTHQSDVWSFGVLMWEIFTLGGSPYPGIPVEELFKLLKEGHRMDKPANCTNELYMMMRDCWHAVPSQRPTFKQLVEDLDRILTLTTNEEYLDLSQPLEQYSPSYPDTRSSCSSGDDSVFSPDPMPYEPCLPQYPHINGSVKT
# T3 sequence (P16591 whole entry): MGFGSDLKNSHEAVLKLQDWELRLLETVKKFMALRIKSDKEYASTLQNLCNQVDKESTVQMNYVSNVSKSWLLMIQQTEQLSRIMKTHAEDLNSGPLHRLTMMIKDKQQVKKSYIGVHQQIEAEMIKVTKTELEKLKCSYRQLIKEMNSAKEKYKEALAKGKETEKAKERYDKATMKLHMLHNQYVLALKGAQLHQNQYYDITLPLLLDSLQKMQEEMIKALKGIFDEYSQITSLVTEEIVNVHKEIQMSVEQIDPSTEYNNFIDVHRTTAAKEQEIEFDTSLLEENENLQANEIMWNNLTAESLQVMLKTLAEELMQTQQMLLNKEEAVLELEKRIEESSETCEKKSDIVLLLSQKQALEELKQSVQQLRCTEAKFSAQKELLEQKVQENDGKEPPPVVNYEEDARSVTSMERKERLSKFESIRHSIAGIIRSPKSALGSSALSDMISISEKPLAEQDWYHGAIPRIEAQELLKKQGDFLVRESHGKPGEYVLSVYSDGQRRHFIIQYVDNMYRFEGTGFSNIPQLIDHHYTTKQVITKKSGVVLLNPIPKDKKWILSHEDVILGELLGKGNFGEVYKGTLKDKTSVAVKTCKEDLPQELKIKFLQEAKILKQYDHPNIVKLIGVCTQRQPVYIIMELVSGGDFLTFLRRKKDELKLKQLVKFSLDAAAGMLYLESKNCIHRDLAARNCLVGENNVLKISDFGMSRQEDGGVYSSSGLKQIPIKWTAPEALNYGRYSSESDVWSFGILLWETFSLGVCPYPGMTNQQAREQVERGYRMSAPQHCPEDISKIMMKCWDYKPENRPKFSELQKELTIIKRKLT
structure (smiles),measurement,setting,value
"COc1ccc(/C=C2\N=C(C)N(c3ccc(CC(=O)NCc4ccccc4)cc3)C2=O)cc1 [Compound 4c, (Z)-N-Benzyl-2-(4-(4-(4-methoxybenzylidene)-2-methyl-5-oxo-4,5-dihydro-1H-imidazol-1-yl)phenyl)acetamide]",Mean Final score (Kinase score),EphA3 (P29320),1.273
same,Mean Kinase Statistic,EphA3 (P29320),-0.7527
same,Mean Significance Score,EphA3 (P29320),1.23
same,Mean Specificity Score,EphA3 (P29320),0.04291
same,Mean Final score (Kinase score),FGFR2 (P21802),2.386
same,Mean Kinase Statistic,FGFR2 (P21802),-1.189
same,Mean Significance Score,FGFR2 (P21802),2.048
same,Mean Specificity Score,FGFR2 (P21802),0.3335
same,Mean Final score (Kinase score),Fer (P16591),2.491
same,Mean Kinase Statistic,Fer (P16591),-1.259
same,Mean Significance Score,Fer (P16591),2.048
same,Mean Specificity Score,Fer (P16591),0.455
same,Mean Final score (Kinase score),IRR (P14616),2.412
same,Mean Kinase Statistic,IRR (P14616),-1.1771
same,Mean Significance Score,IRR (P14616),2.053
same,Mean Specificity Score,IRR (P14616),0.3184
same,Mean Final score (Kinase score),TRKB (Q16620),2.487
same,Mean Kinase Statistic,TRKB (Q16620),-1.25
same,Mean Significance Score,TRKB (Q16620),2.048
same,Mean Specificity Score,TRKB (Q16620),0.5169
